Measured values published in ChEMBL document CHEMBL1201862, “PubChem BioAssay data set” (2004).
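Growth conditions: 96-well plates. Treatment: test compound, 48 hours, 5 concentrations. Analysis: linear interpolation between bracketing concentrations; unreached endpoints set to highest concentration. Here, GI50 denotes the concentration required for 50% inhibition of growth.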 Calls of active or inactive are those of the source. Cut-off read from the data, not from the text of the source: active = GI50 up to about 1.1 µM and inactive = higher. Residues, ends and D or L forms follow the SMILES beside them. *: point of attachment. Boc = CC(C)(C)OC(=O)*

Assays:
Assay in all cases: growth of human tumour cells (NCI), 48 h
BT-549 = tested on: BT-549
MDA-MB-231 = tested on: MDA-MB-231
MDA-N = tested on: MDA-N
PC-3 = tested on: PC-3
T47D = tested on: T47D
KM-20L2 = tested on: KM-20L2
M19-MEL = tested on: M19-MEL

Structure (SMILES)	GI50 (BT-549)	GI50 (MDA-MB-231)	GI50 (MDA-N)	GI50 (PC-3)	GI50 (T47D)	GI50 (KM-20L2)	GI50 (M19-MEL)
Cc1cc(C)c(S(=O)(=O)N(CCCCCCN)OCCCN)c(C)c1	17.8 µM (inactive)	10.7 µM (inactive)	17.5 µM (inactive)	14.6 µM (inactive)	17.7 µM (inactive)		
CNC(=O)C(C)C1CCC2(C)C=CC(=O)C(C)=C2C1O (stereo not given)						> 100 µM (inactive)	> 100 µM (inactive)
O=c1sc(Nc2ccc3ccccc3c2Cl)nc2ccccc12	> 100 µM (inactive)	> 100 µM (inactive)		> 100 µM (inactive)	> 100 µM (inactive)		
O=C1OC(=O)c2c1cc1cc3c(cc1c2-c1ccc2c(c1)OCO2)OCO3	> 100 µM (inactive)	> 100 µM (inactive)	> 100 µM (inactive)	> 100 µM (inactive)	> 100 µM (inactive)		
O=C1O/C(=C\c2ccc(O)cc2)C(c2ccc(O)c(Cl)c2)=C1Br	6.35 µM (inactive)	21.8 µM (inactive)	8.57 µM (inactive)	6.47 µM (inactive)	17.7 µM (inactive)		
C/C(=N\NC(=O)c1ccncc1)c1sc(-n2nc(-c3ccccc3)cc2-c2ccccc2)nc1C	> 31.6 µM (inactive)	> 63 µM (inactive)	> 100 µM (inactive)	> 31.6 µM (inactive)	18.5 µM (inactive)		
CN(C)CN1C(=O)/C(=N\n2c(S)nnc2-c2ccncc2)c2ccccc21	94.4 µM (inactive)	> 100 µM (inactive)	16.7 µM (inactive)	35.6 µM (inactive)	30.8 µM (inactive)		
CCCCNC(=O)OCCN=C1c2ccccc2C(Br)C(Br)c2ccccc21 (stereo not given)		29.4 µM (inactive)	15.2 µM (inactive)	36.9 µM (inactive)	33.8 µM (inactive)		
COC(=O)C1(OC(=O)Sc2ccccc2)CCN(C)CC1	1.5 µM (inactive)	16.9 µM (inactive)	17.8 µM (inactive)	7.57 µM (inactive)	31.3 µM (inactive)		
Fc1ccc(C(OCCN2CCN(CCCc3ccccc3)CC2)c2ccc(F)cc2)cc1	7.05 µM (inactive)	3.15 µM (inactive)	4.06 µM (inactive)	3.44 µM (inactive)	4.9 µM (inactive)		
COc1cccc(C(=O)C#Cc2cnc(OC)nc2OC)c1	0.306 µM (active)	3.41 µM (inactive)	1.49 µM (inactive)	1.37 µM (inactive)	1.83 µM (inactive)		
CCCCCCCCCCCCCCCCP(=O)([O-])OCC[N+](C)(C)C	9.53 µM (inactive)	20.5 µM (inactive)	15.4 µM (inactive)	1.71 µM (inactive)	17.6 µM (inactive)		
Nc1cc(O)c2cc(/N=N/c3ccc(/N=N/c4ccc(/N=N/c5ccc6cc(S(=O)(=O)O)cc(S(=O)(=O)O)c6c5)c5ccccc45)c4cc(S(=O)(=O)O)ccc34)c(S(=O)(=O)O)cc2c1						> 10 µM (inactive)	> 100 µM (inactive)
COC(C(O)c1ccc2c(c1)OCO2)P(=O)(c1ccccc1)c1ccccc1 (stereo not given)							> 100 µM (inactive)
CCOC(=O)/C=C(\C(=O)OCC)n1ccc(=O)n(Cc2cnnn2CCCCOC(C)=O)c1=O	16.4 µM (inactive)	15.2 µM (inactive)	22.5 µM (inactive)	9.4 µM (inactive)	4.07 µM (inactive)		
CCOc1cc(C=O)ccc1O [ETHYL VANILLIN]		> 100 µM (inactive)	> 100 µM (inactive)	> 100 µM (inactive)	> 100 µM (inactive)		
CC1CCC2C(C(=O)O[C@H]3C4CCO[C@@H](OC5OC(CO)C(O)C(O)C5O)C4[C@@]4(CO)O[C@@H]34)=CO[C@@H](OC3OC(CO)C(O)C(O)C3O)C12 (stereo not given in full)	> 10 µM (inactive)	> 10 µM (inactive)	> 10 µM (inactive)	> 10 µM (inactive)	> 10 µM (inactive)		
CC(C)(C)OC(=O)NC(Cc1ccccc1)C(=O)N[C@H]1c2ccsc2/C(=N/O)[C@H]1O (stereo not given in full)	> 100 µM (inactive)	> 100 µM (inactive)	> 100 µM (inactive)	> 100 µM (inactive)	> 100 µM (inactive)		
N/C(=N\c1c([N+](=O)[O-])cnc2ccccc12)N1CCOCC1	> 100 µM (inactive)	> 100 µM (inactive)	> 100 µM (inactive)	> 100 µM (inactive)	> 100 µM (inactive)		
N#CC(=S)Nc1ccc(F)cc1	32.6 µM (inactive)	> 100 µM (inactive)	52.1 µM (inactive)	57.7 µM (inactive)	24 µM (inactive)		
CC(NC(=O)C(NC(=O)OC(C)(C)C)C(C)C)C(=O)N1CCCC1C(=O)NCC(=O)NC(C(=O)NCC(=O)O)C(C)C (stereo not given) (Boc-VAPGVG-OH; configuration not given here)		92.3 µM (inactive)	> 100 µM (inactive)	> 100 µM (inactive)	> 100 µM (inactive)		
Fc1cccc(C2ON=C(c3ccccc3)N2C23CC4CC(CC(C4)C2)C3)c1 (stereo not given)	> 10 µM (inactive)	> 10 µM (inactive)	> 10 µM (inactive)	> 10 µM (inactive)	> 10 µM (inactive)		
COC(=O)[C@]1(C)CCCn2c(=O)n(-c3ccccc3)c(=O)n21	> 100 µM (inactive)	> 100 µM (inactive)		> 100 µM (inactive)	> 100 µM (inactive)		
